Test results taken from patent publication US6884818B1, “Pharmaceutical compositions containing 8-chloro-3 (β-diethylaminoethyl)-4-methyl-7-ethoxycarbonylmethoxy coumarin base and the salts thereof with cholesterol-lowering activity” (Fidia Farmaceutici S.p.A., priority 1999, dated 2005).

Tests used:
[1] = tested on: hypercholesterolaemic-diabetic rabbits; assay: Test No. 1: tolerability and cholesterol-lowering effect in rabbits on 1% cholesterol diet with alloxan-induced diabetes; format: in vivo, rabbit; conditions: for body weight curve: treated chronically for 4-5 weeks, weighed weekly, versus untreated control group (FIG. 1)
Description: A preliminary experiment was performed to assess the ability of cloricromene to reduce plasma levels of cholesterol and triglycerides in rabbits fed on a high-fat diet, treated chronically for 4-5 weeks. As reference product we used scoparone, as it is the only coumarin derivative of vegetable origin with a documented effect on these parameters.
The experimental model induces high levels of cholesterol and triglycerides in the plasma by a 1% cholesterol-enriched diet, simultaneously inducing diabetes by injection of alloxan, a highly toxic product for the β cells of the pancreas. In this way, it is possible to reach very high values of cholesterol and triglycerides in the system rapidly. The body weight of the animals and the plasma levels of the test parameters were assessed weekly throughout the experiment.

[2] = tested on: rabbits on a high-cholesterol diet; assay: Test No. 3: cholesterol levels in rabbits on 0.1% cholesterol diet without diabetes; format: in vivo, rabbit; conditions: cholesterol around 250 mg/dl, versus control group and scoparone group (FIG. 3)
Description: As further confirmation of this interesting result, we prepared another experimental model. In this case, hypercholesterolaemia was induced in rabbit by administration of a 0.1% cholesterol diet, without simultaneously inducing diabetes. In these experimental conditions, cholesterol levels of around 250 mg/dl were obtained, that is to say, values that are compatible with the pathological situation normally observed in humans affected by hypercholesterol. The rabbits were divided into three treatment groups: controls treated with saline, a second group receiving scoparone and a third receiving cloricromene.

[3] = tested on: hypercholesterolaemic-diabetic rabbits; assay: Test No. 2: weekly cholesterol levels in rabbits with alloxan diabetes on 1% cholesterol diet; format: in vivo
Source text: In the same experimental model, in which a diabetic pathology is induced by treating the animals with alloxan, and hypercholesterolaemia is induced by administering a 1% cholesterol diet, we monitored at weekly intervals the cholesterol levels of the rabbits, which had been divided into the following treatment groups: • 1. Control, treated with saline solution • 2. Scoparone • 3. Cloricromene

[4] = tested on: patients with Peripheral Vascular Disease (PVD) at Fontaine stage II; assay: Multicentre, double-blind, randomised, placebo-controlled study in patients with Peripheral Vascular Disease (Fontaine stage II); format: in vivo, human
Source text: We conducted a multicentre, double-blind, randomised study, controlled versus placebo, on 159 patients with Peripheral Vascular Disease (PVD) at Fontaine stage II, the classic symptom of which is Intermittent Claudication (IC).
In our study, besides assessing the effect of cloricromene on IC, we also studied the cholesterol-lowering effects of the drug and the incidence of major cardiovascular events (myocardial infarction, stroke, vascular death, progression to Fontaine stages III-IV) after a treatment period of six months.
In analysing the cholesterol-lowering effect, 117 patients were considered who presented cholesterol values at baseline of over 190 mg/dI.
The critical value of 190 mg/dl was selected on the basis of data from the international literature that report this value as the risk threshold in pathologies such as cardiac ischaemia and atherosclerosis in general, in which excessive cholesterol represents a real risk factor. Therefore, the patients who presented cholesterol values equal to or over 190 mg/dl were considered to be at risk from said pathologies.
For the purposes of this analysis, 58 patients were treated for 6 months with 200 mg of cloricromene per day (one capsule of 100 mg twice a day), while the remaining 59 patients were treated with placebo (Table). All the patients also took aspirin at a dose of 160 mg/day throughout the trial.

[5] = 1% cholesterol diet + alloxan, 4-5 weeks, cloricromene group versus scoparone group

CCOC(=O)COc1ccc2c(C)c(CCN(CC)CC)c(=O)oc2c1Cl [cloricromene, 8-chloro-3(β-diethylaminoethyl)-4-methyl-7-ethoxycarbonylmethoxy coumarin]
plasma levels of cholesterol [1, 5]: tended to be lower | plasma levels of triglycerides [1, 5]: tended to be lower | body weight curve ([1]; 1% cholesterol diet + alloxan): superimposable on that of the control group | toxic activity on repeated administration over long periods ([1]; repeated administration, in comparison to scoparone): absolute lack of toxic activity | cholesterol levels [2]: markedly lower | cholesterol levels ([3]; 1% cholesterol diet + alloxan, versus saline control and scoparone, evident from third week of treatment (FIG. 2)): markedly lower than those of both the control group and that treated with scoparone | Cholesterol levels at week 24 ([4]; 58 patients with baseline cholesterol over 190 mg/dl, after 6 months of 200 mg cloricromene per day (100 mg capsule twice a day), plus aspirin 160 mg/day, p = 0.0035 vs week 0): 229 ± 32 | Cholesterol levels at Week 0 ([4]; 58 patients with baseline cholesterol over 190 mg/dl, baseline before 200 mg cloricromene per day, plus aspirin 160 mg/day): 243 ± 31 | difference in cholesterol between treatment groups (analysis of covariance) ([4]; cloricromene versus placebo, 6 months, p=0.04, α=0.05): statistically significant in favour of the group treated with cloricromene | major cardiovascular events or deaths ([4]; patients, treatment period of six months): no major cardiovascular events or deaths were observed

COc1cc2ccc(=O)oc2cc1OC [scoparone]
body weight curve ([1]; 1% cholesterol diet + alloxan): marked and progressive reduction in body weight | number of animals that completed the treatment ([3]; end of experiment, scoparone group versus cloricromene group): considerably lower
